Data published in US10865211B2 (ENANTA PHARMACEUTICALS, INC, priority 2018, dated 2020).

Assays:
[1] = system: 2.2.15 cells; assay: Antiviral activity in 2.2.15 cells: reduction of viral product accumulation (qPCR, HBsAg/HBeAg ELISA); type: cell-based, HBV; conditions: Hepatitis B virus, 120 h, day 5 post treatment, concentration reducing viral product accumulation in cell lysates or supernatants by 50% relative to no drug controls
Experimental: 2.2.15 cells are passaged upon attaining confluency in DMEM/F12 media in the presence of 10% FBS, Penn/Strep, and 250 ug/mL G418. Novel compounds are 5 fold serially diluted in DMSO and added to 96 well plates containing 35,000 cells/well at a 1:200 dilution so that the final concentration of DMSO is 0.5%. On day 5, post treatment cell lysates and supernatants are harvested for analysis.
Cells are lysed using Agilent Sidestep Lysis buffer, diluted 1:100 and quantified via quantitative real time PCR. Commercially available ELISA kits are used to quantitate the viral proteins HBsAg (Alpco) or HBeAg (US Biological) by following the manufacturer's recommended protocol after diluting samples to match the linear range of their respective assays. Irrespective of readout, compound concentrations that reduce viral product accumulation in the cell lysates or supernatants by 50% relative to no drug controls (EC50) are reported; EC50 ranges are as follows: A<0.1 μM; B 0.1-1 μM; C>1 μM.

[2] = Compound induced cellular toxicity in HepG2 cells (ATPlite); type: cell-based; conditions: human, three days, ATPlite 1 Step, concentration reducing total ATP levels by 50% relative to no drug controls
Experimental: At day 3, post seeding cells are treated with ATPlite 1 Step according to the manufacturer's instructions.

Row | SMILES | EC50 [1] [µM] | CC50 at 3 days [2] [µM]
1 | CC(C)(C)[C@@H]1Cc2c(oc3c(-c4cnco4)cccc23)-c2cc(=O)c(C(=O)O)cn21 [Example 27, (S)-6-(tert-butyl)-11-(oxazol-5-yl)-2-oxo-6,7-dihydro-2H-benzofuro[2,3-a]quinolizine-3-carboxylic acid] | < 0.1 | 10 to 25
2 | Cn1nccc1-c1cccc2c3c(oc12)-c1cc(=O)c(C(=O)O)cn1[C@H](C(C)(C)C)C3 [Example 28, (S)-6-(tert-butyl)-11-(1-methyl-1H-pyrazol-5-yl)-2-oxo-6,7-dihydro-2H-benzofuro[2,3-a]quinolizine-3-carboxylic acid] | < 0.1 | > 25
3 | Cn1cc(-c2cccc3c4c(oc23)-c2cc(=O)c(C(=O)O)cn2[C@H](C(C)(C)C)C4)cn1 [Example 29, (S)-6-(tert-butyl)-11-(1-methyl-1H-pyrazol-4-yl)-2-oxo-6,7-dihydro-2H-benzofuro[2,3-a]quinolizine-3-carboxylic acid] | < 0.1 | 10 to 25
4 | Cn1ccc(-c2cccc3c4c(oc23)-c2cc(=O)c(C(=O)O)cn2[C@H](C(C)(C)C)C4)n1 [Example 30, (S)-6-(tert-butyl)-11-(1-methyl-1H-pyrazol-3-yl)-2-oxo-6,7-dihydro-2H-benzofuro[2,3-a]quinolizine-3-carboxylic acid] | < 0.1 | 10 to 25
5 | CC(C)(C)[C@@H]1Cc2c(oc3c(C#N)cccc23)-c2cc(=O)c(C(=O)O)cn21 [Example 31, (S)-6-(tert-butyl)-11-cyano-2-oxo-6,7-dihydro-2H-benzofuro[2,3-a]quinolizine-3-carboxylic acid] | < 0.1 | > 25
6 | CC(C)(C)[C@@H]1Cc2c(oc3c(-c4cn[nH]c4)cccc23)-c2cc(=O)c(C(=O)O)cn21 [Example 32, (S)-6-(tert-butyl)-2-oxo-11-(1H-pyrazol-4-yl)-6,7-dihydro-2H-benzofuro[2,3-a]quinolizine-3-carboxylic acid] | < 0.1 | > 25
7 | CC(C)(C)[C@@H]1Cc2c(oc3c(-c4ccn[nH]4)cccc23)-c2cc(=O)c(C(=O)O)cn21 [Example 33, (S)-6-(tert-butyl)-2-oxo-11-(1H-pyrazol-5-yl)-6,7-dihydro-2H-benzofuro[2,3-a]quinolizine-3-carboxylicacid] | < 0.1 | > 25
8 | CC(C)(C)[C@@H]1Cc2c(oc3c(-c4ccco4)cccc23)-c2cc(=O)c(C(=O)O)cn21 [Example 34, (S)-6-(tert-butyl)-11-(furan-2-yl)-2-oxo-6,7-dihydro-2H-benzofuro[2,3-a]quinolizine-3-carboxylic acid] | < 0.1 | 10 to 25
9 | CC(C)(C)[C@@H]1Cc2c(oc3c(-c4ccsc4)cccc23)-c2cc(=O)c(C(=O)O)cn21 [Example 35, (S)-6-(tert-butyl)-2-oxo-11-(thiophen-3-yl)-6,7-dihydro-2H-benzofuro[2,3-a]quinolizine-3-carboxylic acid] | < 0.1 | > 25
10 | CC(C)(C)[C@@H]1Cc2c(oc3c(N4CCC(F)(F)C4)cccc23)-c2cc(=O)c(C(=O)O)cn21 [Example 36, (S)-6-(tert-butyl)-11-(3,3-difluoropyrrolidin-1-yl)-2-oxo-6,7-dihydro-2H-benzofuro[2,3-a]quinolizine-3-carboxylic acid] | < 0.1 | > 25
11 | CC(C)(C)[C@@H]1Cc2c(oc3c(-c4cccs4)cccc23)-c2cc(=O)c(C(=O)O)cn21 [Example 37, (S)-6-(tert-butyl)-2-oxo-11-(thiophen-2-yl)-6,7-dihydro-2H-benzofuro[2,3-a]quinolizine-3-carboxylic acid] | < 0.1 | > 25
12 | CC(C)(C)[C@@H]1Cc2c(oc3c(-c4cnsc4)cccc23)-c2cc(=O)c(C(=O)O)cn21 [Example 38, (S)-6-(tert-butyl)-11-(isothiazol-4-yl)-2-oxo-6,7-dihydro-2H-benzofuro[2,3-a]quinolizine-3-carboxylic acid] | < 0.1 | 10 to 25
